Data on one molecule can be found in patent US20120028358A1, “METHOD FOR INCREASING RETROVIRAL INFECTIVITY” (priority 2010, published 2012).

The test system of test [1] is Phoenix cells. Nature of the test: Viral titer of conditioned medium by quantitative RT-PCR (GFP region of viral RNA). Format: cell-based. As to the method: Vectors and delivery systems: pBMN-GFP, a retroviral vector that expresses GFP driven by the MMLV's promoter in Phoenix and other cells was purchased from Orbigen, Inc. (San Diego, Calif.). Packaging cells were transfected with pBMN-GFP using FuGENE 6 reagent following manufacture instructions. Stably transfected Phoenix cells were selected by GFP expression using flow cytometry and then used for experiments. For virus propagation, packaging cells were cultured in growth medium for at least 12 hours. Virus was collected with cultured medium, filtered, supplemented with hexadimethrine bromide (polybrene) to a final concentration of 4 μg/ml and applied directly to target cells. The level of viral RNA in collected medium was determined by quantitative PCR using iScript One-Step RT-PCR kit (with SYBR Green, Bio-Rad, 170-8893) using primers for the GFP region of the viral RNA following manufacture instructions.
We first tested the ability of dexamethasone to increase retroviral protein production in Phoenix cells with integrated pro-viruses using GFP as a reporter. […] We then analyzed the Phoenix cells for GFP expression by flow cytometry. […] To determine if this increase in GFP expression correlated with an increase in viral titer in the supernatant, we performed quantitative RT-PCR on the conditioned medium using primers for the GFP region of the viral RNA.

Test [2] deals with HIV. The note with it: depending on cell type; cited from earlier work.

Entries after “also recorded” stand apart in the source; their conditions may differ.

Regarding `CC#C[C@]1(O)CC[C@H]2[C@@H]3CCC4=CC(=O)CCC4=C3[C@@H](c3ccc(N(C)C)cc3)C[C@@]21C` [mifepristone, 11-beta-(4-dimethylaminophenyl)-17-beta-hydroxy-17-alpha-(1-propynyl)-estra-4,9-dien-3-one], in test [1] (dexamethasone and mifepristone added to packaging cells at the same time), the “Effect on enhancing effect of dexamethasone on virus production” value is “partially blocks; also recorded: completely inhibited”. Further, the “Viral levels in the medium” value in test [1] (mifepristone 0-20 μmol, without dexamethasone) was “no effect”. The HIV replication result in test [2] was “could stimulate”.
